These results are taken from article PMC12548168, “Pitavastatin is a novel Mcl-1 inhibitor that overcomes paclitaxel resistance in triple-negative breast cancer” (Experimental Hematology & Oncology, 2025).

SMILES strings stand for the structures.

Test [1] deals with T1, Mcl-1 (myeloid cell leukemia 1) (Homo sapiens, UniProt Q07820).
T1 construct: gene MCL1
In words: surface plasmon resonance (SPR), reference Mcl-1 inhibitor (Supplementary Fig. S2). It counts as binding. On the technique in general: In SPR one partner is held on a chip, and binding of the other changes the refractive index at the surface.

The target of test [2] is T1, Mcl-1 (myeloid cell leukemia 1). In words: surface plasmon resonance (SPR). It counts as binding.

T1 sequence (Q07820 whole entry): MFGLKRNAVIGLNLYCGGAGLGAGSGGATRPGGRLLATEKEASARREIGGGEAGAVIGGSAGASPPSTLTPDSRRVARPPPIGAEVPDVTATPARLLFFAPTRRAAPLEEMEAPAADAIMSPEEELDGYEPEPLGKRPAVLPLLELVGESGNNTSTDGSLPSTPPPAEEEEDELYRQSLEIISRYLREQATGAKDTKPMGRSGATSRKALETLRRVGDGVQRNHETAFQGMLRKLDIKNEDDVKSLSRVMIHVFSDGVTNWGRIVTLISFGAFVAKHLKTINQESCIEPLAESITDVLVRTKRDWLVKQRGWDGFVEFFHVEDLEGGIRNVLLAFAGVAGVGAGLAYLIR

In general, Kd refers to the free concentration of one partner at which half of the binding sites on the other are occupied at equilibrium, for simple one-to-one binding. A lower Kd goes with a tighter complex. With `Cc1cc2c(C(C)C)c(O)c(O)c(C=O)c2c(O)c1-c1c(C)cc2c(C(C)C)c(O)c(O)c(C=O)c2c1O` [AT101], in test [1], the Kd came to 9.48 µM.
`O=C(O)C[C@H](O)C[C@H](O)/C=C/c1c(C2CC2)nc2ccccc2c1-c1ccc(F)cc1` [PITA, Pitavastatin] yielded a Kd in test [2] of 3.91 µM.
